How the values were obtained:
Mu-type opioid receptor = Mu-type opioid receptor (Rattus norvegicus, UniProt P33535); experiment: Receptor Binding Assay
Procedure: (§1) Competitive binding displacement analysis was performed with membranes prepared from CHO-K1 cells stably expressing receptors. After incubation, samples were collected on GF/B glass-fiber, washed, and counted for radioactivity. IC50 values were obtained by fitting the competition binding curves according to a 4-parameter logistic model. Inhibition constants Ki were derived from the Cheng-Prusoff equation.

Nociceptin receptor = Nociceptin receptor (Homo sapiens, UniProt P41146); experiment: Receptor Binding Assay; settings: pH 7.8; 25 °C
Sequence of Nociceptin receptor (P41146 whole entry): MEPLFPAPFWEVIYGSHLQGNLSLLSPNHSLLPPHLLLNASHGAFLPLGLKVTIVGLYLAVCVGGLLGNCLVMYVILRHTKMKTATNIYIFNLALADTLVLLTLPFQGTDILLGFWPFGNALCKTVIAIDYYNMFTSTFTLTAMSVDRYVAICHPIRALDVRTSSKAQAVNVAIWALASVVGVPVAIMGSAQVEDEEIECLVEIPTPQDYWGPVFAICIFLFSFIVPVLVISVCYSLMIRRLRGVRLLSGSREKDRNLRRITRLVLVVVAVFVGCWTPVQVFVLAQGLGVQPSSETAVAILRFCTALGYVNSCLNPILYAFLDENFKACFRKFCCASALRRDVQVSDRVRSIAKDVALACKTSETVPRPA
Procedure: as §1

Sequence of Mu-type opioid receptor (P33535 whole entry): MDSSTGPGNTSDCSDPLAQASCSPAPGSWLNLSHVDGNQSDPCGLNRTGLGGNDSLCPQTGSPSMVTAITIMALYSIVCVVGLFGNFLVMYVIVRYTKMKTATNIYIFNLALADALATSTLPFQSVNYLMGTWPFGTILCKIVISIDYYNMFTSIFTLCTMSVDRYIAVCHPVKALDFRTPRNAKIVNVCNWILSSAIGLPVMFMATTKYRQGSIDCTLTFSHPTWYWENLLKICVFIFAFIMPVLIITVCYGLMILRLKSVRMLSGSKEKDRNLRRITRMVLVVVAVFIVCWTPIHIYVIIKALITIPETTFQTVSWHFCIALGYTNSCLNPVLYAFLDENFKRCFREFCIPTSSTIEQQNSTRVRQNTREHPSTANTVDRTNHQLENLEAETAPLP

Ki (Mu-type opioid receptor)	Ki (Nociceptin receptor)	Structure (SMILES)
60 nM	152 nM	Cc1ccc2nc(C=Cc3ccc(Cl)cc3)nc(N[C@H]3CC[C@@H](N=C(N)N)CC3)c2c1 [4-({2-[(E)-2-(4-chlorophenyl)ethenyl]-6-methylquinazolin-4-yl}amino)cyclohexane-1-guanidine]
220 nM	43 nM	Cc1ccc2nc(C=Cc3ccc(Cl)cc3)nc(N[C@H]3CCCC[C@H]3NC(=N)N)c2c1 (racemic) [(1R,2S)-2-({2-[(E)-2-(4-chlorophenyl)ethenyl]-6-methylquinazolin-4-yl}amino)cyclohexane-1-guanidine]
